How the values were obtained:
human CB2 receptors = human CB2 receptors (Homo sapiens (Human), UniProt P34972); test: functional cAMP assay, CHO cells expressing human CB2 receptors; assay type: cell-based
Method in brief: (§1)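 Readout: TR-FRET cAMP detection at 730 and 645 nm with 355 nm excitation, quantified from a standard curve spanning 10 μM to 0.13 nM cAMP. Human CB1- or CB2-expressing CHO cells were exposed to compound for 30 min at 30 °C in KRB buffer containing 1 mM IBMX. EC50 derived.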

human CB1 receptors = human CB1 receptors (Homo sapiens (Human), UniProt P21554); test: functional cAMP assay, CHO cells expressing human CB1 receptors; assay type: cell-based
Method in brief: as §1

Sequence of human CB2 receptors (P34972 whole entry): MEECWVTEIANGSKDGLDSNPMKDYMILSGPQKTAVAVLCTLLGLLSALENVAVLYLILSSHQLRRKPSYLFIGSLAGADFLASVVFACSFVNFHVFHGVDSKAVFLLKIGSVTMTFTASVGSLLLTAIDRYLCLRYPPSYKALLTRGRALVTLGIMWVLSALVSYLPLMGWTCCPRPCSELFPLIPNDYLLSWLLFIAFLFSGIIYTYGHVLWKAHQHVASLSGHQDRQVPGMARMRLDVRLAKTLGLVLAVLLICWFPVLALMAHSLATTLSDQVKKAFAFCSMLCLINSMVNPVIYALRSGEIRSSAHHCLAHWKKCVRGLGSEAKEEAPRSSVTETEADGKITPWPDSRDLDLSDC
Sequence of human CB1 receptors (P21554 whole entry): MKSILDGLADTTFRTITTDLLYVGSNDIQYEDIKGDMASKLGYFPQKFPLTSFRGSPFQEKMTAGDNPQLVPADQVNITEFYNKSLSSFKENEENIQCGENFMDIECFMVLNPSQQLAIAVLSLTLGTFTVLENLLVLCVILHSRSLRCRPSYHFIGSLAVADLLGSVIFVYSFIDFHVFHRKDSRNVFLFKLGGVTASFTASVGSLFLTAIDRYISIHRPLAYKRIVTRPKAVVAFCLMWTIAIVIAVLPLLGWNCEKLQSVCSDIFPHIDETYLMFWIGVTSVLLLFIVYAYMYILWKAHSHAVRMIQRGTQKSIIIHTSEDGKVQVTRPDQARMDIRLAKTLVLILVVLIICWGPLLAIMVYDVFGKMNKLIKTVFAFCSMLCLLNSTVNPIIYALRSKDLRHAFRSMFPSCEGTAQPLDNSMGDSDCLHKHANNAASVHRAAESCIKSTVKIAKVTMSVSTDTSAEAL

Compound	EC50 (human CB2 receptors) [µM]	EC50 (human CB1 receptors) [µM]
NC(=O)[C@H]1N(C(=O)c2ccc(N3CC(F)(F)C3)c(OCC3CC3)n2)CCC12CC2 [Example 152, (+)-5-[6-(Cyclopropylmethoxy)-5-(3,3-difluoroazetidin-1-yl)pyridine-2-carbonyl]-5-azaspiro[2.4]heptane-4-carboxamide]	0.338	> 10
NC(=O)[C@@H]1CS(=O)(=O)CN1C(=O)c1ccc(C2CC2)c(OCC2CC2)n1 [Example 115, (−)-3-(5-Cyclopropyl-6-cyclopropylmethoxy-pyridine-2-carbonyl)-1,1-dioxo-1λ^6-thiazolidine-4-carboxylic acid amide]	0.0072	> 10
CC1(C)CCN(C(=O)c2ccc(C3CC3)c(Cc3ccc(F)cc3)n2)CC1 [Example 42, [5-Cyclopropyl-6-(4-fluoro-benzyl)-pyridin-2-yl]-(4,4-dimethyl-piperidin-1-yl)-methanone]	0.009	> 10
O=C(c1ccc(N2CC(F)(F)C2)c(OCC2CC2)n1)N1CCCC12CCC2 [Example 101, (5-Aza-spiro[3.4]oct-5-yl)-[6-cyclopropylmethoxy-5-(3,3-difluoro-azetidin-1-yl)-pyridin-2-yl]-methanone]	0.0049	> 10
NC(=O)[C@@H]1CC(F)(F)CN1C(=O)c1ccc(C2(F)CCC2)c(OCC2CC2)n1 [Example 130, (2S)-1-[6-(Cyclopropylmethoxy)-5-(1-fluorocyclobutyl)pyridine-2-carbonyl]-4,4-difluoropyrrolidine-2-carboxamide]	0.0023	> 10
CC1(C)CCN(C(=O)c2ccc(C3CC3)c(OCC3CCCO3)n2)CC1 (stereo not drawn) [Example 43, [5-Cyclopropyl-6-(tetrahydro-furan-2-ylmethoxy)-pyridin-2-yl]-(4,4-dimethyl-piperidin-1-yl)-methanone]	0.0349	> 10
O=C(c1ccc(C2CC2)c(OCC2CC2)n1)N1CCC(C(O)C(F)(F)F)C1 (stereo not drawn) [Example 141, [5-Cyclopropyl-6-(cyclopropylmethoxy)pyridin-2-yl]-[3-(2,2,2-trifluoro-1-hydroxyethyl)pyrrolidin-1-yl]methanone]	0.262	> 10
O=C(c1ccc(N2CC(F)(F)C2)c(OCC2CC2)n1)N1CCC2(CCCO2)C1 (stereo not drawn) [Example 100, [6-Cyclopropylmethoxy-5-(3,3-difluoro-azetidin-1-yl)-pyridin-2-yl]-(1-oxa-7-aza-spiro[4.4]non-7-yl)-methanone]	0.0208	> 10
NC(=O)[C@@H]1C[C@H](F)CN1C(=O)c1ccc(N2CC(F)(F)C2)c(OCC2CC2)n1 [Example 80, (2S,4S)-1-[6-Cyclopropylmethoxy-5-(3,3-difluoro-azetidin-1-yl)-pyridine-2-carbonyl]-4-fluoro-pyrrolidine-2-carboxylic acid amide]	0.342	> 10

Reference: US9303012B2, “Pyridine-2-amides useful as CB2 agonists” (Hoffmann-La Roche Inc., priority 2012, dated 2016)
